Test results taken from EP1243581A1, “Pyridinium compounds useful for the treatment of AGE-related diseases” (Torrent Pharmaceuticals Ltd, priority 2001, dated 2002).

Legend:
AGE-BSA = biological target: T1, AGE-BSA (Bos taurus, UniProt P02769); experiment: In-vitro screening for AGE-breaking activity (ELISA on 16 weeks AGE-BSA); type: biochemical, bovine; details: Concentration 5 mM; 10µg/ml 16 weeks AGE-BSA, 37°C, 24 hours
T1 construct: Bovine serum albumin (fraction V) (BSA); from tissue; host or cells: bovine serum (fraction V albumin)
T1 sequence (P02769 25-607): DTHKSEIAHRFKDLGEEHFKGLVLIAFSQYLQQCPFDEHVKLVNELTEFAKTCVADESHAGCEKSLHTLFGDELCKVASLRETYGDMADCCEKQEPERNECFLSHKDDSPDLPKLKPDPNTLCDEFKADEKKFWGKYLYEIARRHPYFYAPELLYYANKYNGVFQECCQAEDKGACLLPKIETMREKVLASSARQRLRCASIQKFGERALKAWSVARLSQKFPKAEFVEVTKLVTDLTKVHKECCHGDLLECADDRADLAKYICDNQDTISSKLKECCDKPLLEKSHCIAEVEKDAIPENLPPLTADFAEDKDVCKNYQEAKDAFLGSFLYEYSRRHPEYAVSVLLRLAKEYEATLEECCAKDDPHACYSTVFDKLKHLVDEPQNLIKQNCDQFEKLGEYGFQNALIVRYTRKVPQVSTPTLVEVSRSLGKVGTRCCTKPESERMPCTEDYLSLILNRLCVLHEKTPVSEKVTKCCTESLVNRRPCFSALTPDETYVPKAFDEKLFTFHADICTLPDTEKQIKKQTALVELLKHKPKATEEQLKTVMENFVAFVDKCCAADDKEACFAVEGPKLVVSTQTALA
Experimental: • Materials: • Bovine serum albumin (fraction V) (BSA) • Glucose, analytical grade • Phosphate buffered saline (PBS) • Equipment: • Microplate ELISA Reader - Spectramax Plus (Molecular Devices, USA) • Microplate washer, (Bio -Tec Instruments, USA) • pH meter Methods of experiment: Elisa (Enzyme Linked Immunosorbent Assay) 160 mg/ml of protein, bovine serum albumin, BSA and 1.6M glucose sugar were dissolved in phosphate buffered saline, PBS. Sodium azide was added at 0.02% concentration as a preservative. The solution was filtered asceptically through a 0.22 µM filter and kept for aging at 37°C for 16 weeks. After 16 weeks the solution was dialyzed against PBS, aliquoted and stored at - 20°C.
To determine the AGE breaking activity, 10µg/ml of the 16 weeks AGE-BSA was incubated with different concentrations of the test compounds at 37°C for 24 hours and AGE breaking activity of the test compounds by ELISA was determined. […] Different concentrations of 16 weeks AGE-BSA were coated on a microtitre plate as standard. Each concentration is coated in triplicates. • 2. The test samples were coated on microtitre plate at a concentration of 5 ng. to 20 ng per well in triplicates. • 3. The plate was incubated at 37°C for one hour. • 4. After incubation the plate was washed with PBST (PBS with 0.05% Tween 20). • 5. Blocking with 5% skimmed milk in PBS at 37°C for one hour was done. • 6. The plate was washed with PBST. • 7. Primary antibody against AGE-BSA was added and the plate is incubated at 37°C for one hour. • 8. The plate was washed with PBST • 9. Secondary antibody anti rabbit HRPO (Horse-Radish Per Oxidase) conjugate was added and the plate is incubated at 37°C for one hour. • 10. The plate was washed with PBST. • 11. Colour development with OPD (orthophenylenediamine dihydrochloride) and hydrogen peroxide was done. • 12. OD (optical density) at (450nm reading - 620nm reading) was measured after incubation at 37°C for 15 minutes with Microplate ELISA Reader.
The breaker activity of the compounds were determined by the following formula: % Breaker activity =(OD450-620 Control - OD450-620 Test)/(OD450-620 Control)x 100 [formula]

rat model of diabetes [1] = experiment: In-vivo screening: creatinine clearance in STZ-induced diabetic rats; details: b.i.d., 8 weeks, after 12 weeks of STZ diabetes, versus untreated diabetic group
Experimental: (§1) The test compounds were studied for their beneficial effects on diabetic neuropathy and nephropathy in a rat model of diabetes. The rats were divided into three groups. The first group consisted of age matched untreated non-diabetic animals. The second group consisted of diabetic controls and the third group was the diabetic group treated with the test compound. Each treatment group had its own corresponding control and diabetic groups. The second and third groups were treated with Streptozotocin (STZ) at 60mg/kg for the induction of diabetes. After completion of 12 weeks of diabetes the rats were treated with the test compound daily (doses shown in table) for a period of 8 weeks. At the end of the treatment the creatinine clearances and nerve conduction velocities (NCV) of the animals were estimated. Creatinine clearances of the rats were estimated as follows Creatinine clearance =(Concentration of creatinine in the urine)/(Concentration of creatinine in the blood.)x ml urine passed/minute [formula]
The creatinine clearance in untreated diabetic group was compared with the treated group and the percentage improvements are shown in the Table 3.

rat model of diabetes [2] = experiment: In-vivo screening: nerve conduction velocity in STZ-induced diabetic rats; details: b.i.d., 8 weeks, after 12 weeks of STZ diabetes
Experimental: as §1, with “Creatinine clearances of the rats were estimated as follows Creatinine clearance =(Concentration of creatinine in the urine)/(Concentration of creatinine in the blood.)x ml urine passed/minute [formula]” left out
The nerve conduction velocity was measured using a modified method of Biro et al 1998. […] Electromyograms (EMG's) recorded from the plantar muscles consisted of two components: (l) the short latency direct motor response (M) and the monosynaptically elicited long-latency sensory response (H, Hoffmann reflex). Latency and the duration of the M responses were measured and the motor nerve conduction velocity (MNCV) was calculated as follows : MNCV =(Distance between the sciatic and tibial stimulation points.)/(Differences of the latency for Msciatic and Mtibial) [formula] […]

SMILES	% breakage of AGE-BSA crosslinks at 5000 µM (AGE-BSA)	% Increase in creatinine clearance (rat model of diabetes [1]; 6.0 mg/kg)	% Increase in the NCV (rat model of diabetes [2]; 6.0 mg/kg)	% Increase in creatinine clearance (rat model of diabetes [1]; 7.5 mg/kg)	% Increase in the NCV (rat model of diabetes [2]; 7.5 mg/kg)
O=C(C[n+]1cccc(C(=O)NNC(=O)c2ccc[n+](CC(=O)NC3CC3)c2)c1)NC1CC1 [Compound 21, N,N'-bis-[3-carbonyl-1-(2-cyclopropylamino-2-oxoethyl)pyridinium] hydrazine dichloride]	22.8%	5.0%	58.4%		
O=C(NNC(=O)c1ccc[n+](CC(=O)c2cccs2)c1)c1ccc[n+](CC(=O)c2cccs2)c1 [Compound 15, N,N'-bis [3-carbonyl-1-(2-thien-2'-yl-2-oxoethyl)pyridinium] hydrazine dichloride]	20%			103.0%	60.0%
